23 molecules from patent publication US20120101099A1, “HISTONE DEACETYLASE INHIBITORS” (ANTHEM BIOSCIENCES PRIVATE LIMITED, priority 2009, published 2012) can be followed below.

Assay [1] has as its system PC-3. Description: Cell proliferation assay (MTT). It counts as cell-based. The settings on record: Homo sapiens, PC-3; Table 1; MTT, 48 hours; read-out: Cell growth inhibition (GI50 in μM) PC-3. As for the experimental part: (§1) Cells were seeded in a 96-well cell culture plates at a concentration of 10,000 cells per well and incubated at 37° C. in CO2 incubator.
(§2) Twenty-four hours later cells were treated with different concentrations (100, 10, 1, 0.1, and 0.01 μM) of compound dissolved in DMSO and incubated for 48 hours. For To measurement, 24 hours after seeding the cells, 20 μL of 3-(4.5-dimethyl-2- thiazolyl)-2,5-diphenyl-2H-tetrazolium (MTT) solution per well was added to the T0 plate and incubated for 3 hours at 37° C. in a CO2 incubator.
(§3) The plate containing cells and test compounds was treated similarly after 48 hours of incubation. After 3 hours of MTT addition, well contents were aspirated carefully followed by addition of 100 μL DMSO per well. Plates were agitated to ensure dissolution of the formazan crystals in DMSO and absorbance was read at 570 nm (A570). […] From the percentage growths a dose response curve was generated and GI50 values were interpolated from the growth curves.

Assay [2] concerns PA-1. Description: Cell proliferation assay (MTT). It is filed as cell-based. As to conditions: Homo sapiens, Table 1, MTT, 48 hours, read-out: Cell growth inhibition (GI50 in μM) PA-1. The procedure:
as §1, §2, §3

The subject of assay [3] is NCI-H460. Description: Cell proliferation assay (MTT). It is filed as cell-based. As to conditions: Homo sapiens, Table 1, MTT, 48 hours, read-out: Cell growth inhibition (GI50 in μM) NCI H460. As for the experimental part:
as §1, §2, §3

The subject of assay [4] is HT-29. The assay is described as follows: Cell proliferation assay (MTT). It is filed as cell-based. The settings on record: Homo sapiens, HT-29; Table 1; MTT, 48 hours; read-out: Cell growth inhibition (GI50 in μM) HT-29. As for the experimental part: as §1, §2, §3
For assay [5], the system named is human HDAC (Hela cells nuclear extract). Description: HDAC activity screening, Hela nuclear extract, Boc-Lys(Ac)-AMC substrate. It is filed as biochemical. The settings on record: Hela nuclear extract; for HDAC % Inhibition (1 μM): 1 μM compound; for HDAC % Inhibition (10 μM): 10 μM compound; for IC50: read-out: IC50 (50% HDAC inhibitory concentration), Table 2. The procedure: To study the human HDAC inhibition the in-house 96 well plate assay have been established using fluorescent substrate (Boc-Lys (Ac)-AMC Substrate). Hela cells nuclear extract have been used as enzyme source.
Assay was performed in 96-well black microplate and total volume of the assay was 100 μL. Hela nuclear extract was diluted HDAC assay buffer (final concentration of 3.0 μg/mL). Enzyme mixture was made of 10 μL of diluted enzyme and 30 μL of HDAC buffer. 40 μl of enzyme mixture followed by 10 μL of test compound (final concentration from 0.01 to 10 μM) or vehicle (control) was added to each well. The plate was pre-incubated at 37° C. for 10 minutes. The HDAC reaction was started by adding 50 μl of HDAC substrate Boc-Lys (Ac)-AMC (Anaspec, Inc Fremont, Calif., USA). The plate was incubated at 37° C. for 45 minutes. The reaction was stopped by adding 50 μL of Trypsin stop solution and plate further incubated at 37° C. for 15 minutes. Measuring the fluorescence at excitation wavelength of 360 nm and emission wavelength of 460 nm monitored the release of AMC. Buffer alone and substrate alone served as blank.

Some results are limits rather than exact numbers.

Take `CN(C)c1ccc(-c2cn(Cc3ccc(C(=O)NO)cc3)nn2)cc1` [Example 1]: the GI50 came out at 2.4 ± 2.5 µM in assay [1], 0.01 µM in assay [2], 1 ± 0.2 µM in assay [3] and 0.9 ± 0.8 µM in assay [4]. Also, the “HDAC % Inhibition (1 μM)” value in assay [5] is 92%. Also, the “HDAC % Inhibition (10 μM)” value in assay [5] was found to be 94%.

On to `O=C(NO)c1ccc(Cn2cc(-c3ccccc3)nn2)cc1` [Example 2, N-Hydroxy-4-(4-phenyl-[1,2,3]triazol-1-ylmethyl)-benzamide], for which the GI50 in assay [1] was determined as 1.7 ± 1.1 µM; in assay [2] it was 0.11 µM; in assay [3], 2.6 ± 2 µM; in assay [4] it was 1.9 ± 1.8 µM. Besides, the “HDAC % Inhibition (1 μM)” value in assay [5] stood at 98%. Further, the “HDAC % Inhibition (10 μM)” value in assay [5] is given as 100%.

As to `O=C(NO)c1ccc(Cn2cc(-c3ccc(F)cc3)nn2)cc1` [Example 3, 4-[4-(4-Fluoro-phenyl)-[1,2,3]triazol-1-ylmethyl]-N-hydroxy-benzamide], the concentration for 50% growth inhibition (GI50) in assay [1] is 3.4 ± 0.4 µM; in assay [3], 6.5 ± 4.2 µM; in assay [4] it was 5.2 ± 3.5 µM. Further, the “HDAC % Inhibition (1 μM)” value in assay [5] amounted to 84%. Further, in assay [5], the “HDAC % Inhibition (10 μM)” value is 96%.

As for `O=C(NO)c1ccc(Cn2cc(-c3ccccc3F)nn2)cc1` [Example 4, 4-[4-(2-Fluoro-phenyl)-[1,2,3]triazol-1-ylmethyl]-N-hydroxy-benzamide], the GI50 in assay [1] was determined as 4.6 ± 1.6 µM; in assay [3] it was 3.2 ± 1.1 µM; in assay [4], 2.4 ± 0.5 µM. Further, the “HDAC % Inhibition (1 μM)” value in assay [5] is listed as 88%. The “HDAC % Inhibition (10 μM)” value in assay [5] came out at 94%.

For the molecule `O=C(NO)c1ccc(Cn2cc(-c3cccnc3)nn2)cc1` [Example 5, N-Hydroxy-4-(4-pyridin-3-yl-[1,2,3]triazol-1-ylmethyl)-benzamide], the 50% growth inhibitory concentration (GI50) came to 9.2 ± 9.5 µM in assay [1], 19 ± 1 µM in assay [3] and 13.3 ± 2.9 µM in assay [4]. In addition, the “HDAC % Inhibition (1 μM)” value in assay [5] worked out at 68%. The “HDAC % Inhibition (10 μM)” value in assay [5] is on record as 88%.

On to `O=C(NO)c1ccc(Cn2cc(-c3ccc(-c4ccccc4)cc3)nn2)cc1` [Example 6, 4-(4-Biphenyl-4-yl-[1,2,3]triazol-1-ylmethyl)-N-hydroxy-benzamide], for which the GI50 in assay [1] is above 100 µM; in assay [3], above 100 µM; in assay [4], 16.3 µM. Also, the “HDAC % Inhibition (1 μM)” value in assay [5] was found to be 75%. Also, the “HDAC % Inhibition (10 μM)” value in assay [5] is 87%.

Consider `COc1ccc(-c2cn(Cc3ccc(C(=O)NO)cc3)nn2)cc1` [Example 7, N-Hydroxy-4-[4-(4-methoxy-phenyl)-[1,2,3]triazol-1-ylmethyl]-benzamide], for which the GI50 in assay [1] amounted to 2.6 ± 1.2 µM; in assay [3], 3.1 ± 1.7 µM; in assay [4], 1.4 ± 0.5 µM. Besides, the “HDAC % Inhibition (1 μM)” value in assay [5] turned out to be 90%. In addition, the “HDAC % Inhibition (10 μM)” value in assay [5] was determined as 94%.

Consider `O=C(NO)c1ccc(Cn2cc(-c3ccc(CCN4CCOCC4)cc3)nn2)cc1` [Example 12, N-Hydroxy-4-{4-[4-(2-morpholin-4-yl-ethyl)-phenyl]-[1,2,3]triazol-1-ylmethyl}-benzamide], for which the IC50 in assay [5] is 0.0128 µM.

As to `O=C(NO)c1ccc(Cn2cc(-c3ccc(CN4CCCC4)cc3F)nn2)cc1` [Example 14, 4-[4-(2-Fluoro-4-pyrrolidin-l-ylmethyl-phenyl)-[1,2,3]triazol-1-ylmethyl]-N-hydroxy-benzamide], the IC50 in assay [5] was found to be 0.0134 µM.

Regarding `O=C(NO)c1ccc(Cn2cc(-c3ccc(CN4CCOCC4)cc3F)nn2)cc1` [Example 15, 4-[4-(2-Fluoro-4-morpholin-4-ylmethyl-phenyl)-[1,2,3]triazol-1-ylmethyl]-N-hydroxy-benzamide], in assay [5], the IC50 worked out at 0.00733 µM.

As for `CN(C)c1ccc(-c2cn(Cc3ccc(/C=C/C(=O)NO)cc3)nn2)cc1` [Example 17], the concentration for 50% growth inhibition (GI50) in assay [1] was 4.4 µM; in assay [3], 7.06 ± 6.98 µM; in assay [4] it was 0.38 ± 0.12 µM. The “HDAC % Inhibition (1 μM)” value in assay [5] was 93%. Besides, the “HDAC % Inhibition (10 μM)” value in assay [5] stood at 99%.

As for `O=C(/C=C/c1ccc(Cn2cc(-c3ccc(F)cc3)nn2)cc1)NO` [Example 18], the GI50 in assay [3] was determined as 2.21 µM. Also, in assay [4], the 50% growth inhibitory concentration (GI50) is above 100 µM. Further, in assay [5], the “HDAC % Inhibition (1 μM)” value is 98% and the “HDAC % Inhibition (10 μM)” value is reported as 100%.

As to `O=C(/C=C/c1ccc(Cn2cc(-c3ccccc3)nn2)cc1)NO` [Example 19], the GI50 in assay [3] worked out at 3.38 µM. The 50% growth inhibitory concentration (GI50) in assay [4] was 0.2 µM. In addition, in assay [5], the “HDAC % Inhibition (1 μM)” value amounted to 98% and the “HDAC % Inhibition (10 μM)” value is listed as 101%.

With `CN(C)c1ccc(-c2cn(Cc3cccc(/C=C/C(=O)NO)c3)nn2)cc1` [Example 23, (E)-3-{3-[4-(4-Dimethylamino-phenyl)-[1,2,3]triazol-1-ylmethyl]-phenyl}-N-hydroxy-acrylamide], the values for the 50% growth inhibitory concentration (GI50) in assay [1], in assay [3] and in assay [4] were 12.2 µM, 0.3 µM and 0.2 µM, respectively. Further, the “HDAC % Inhibition (1 μM)” value in assay [5] was determined as 96%. Moreover, the “HDAC % Inhibition (10 μM)” value in assay [5] is 99%.

Take `O=C(/C=C/c1cccc(Cn2cc(-c3cccnc3)nn2)c1)NO` [Example 24, N-Hydroxy-3-[3-(4-pyridin-3-yl-[1,2,3]triazol-1-ylmethyl)-phenyl]-acrylamide]: the GI50 in assay [3] amounted to 10.7 µM. Moreover, the GI50 in assay [4] was 0.48 µM. In addition, in assay [5], the “HDAC % Inhibition (1 μM)” value came out at 96% and the “HDAC % Inhibition (10 μM)” value amounted to 101%.

Consider `Cc1ccc(-c2cn(CS(=O)(=O)NCc3ccc(C(=O)NO)cc3)nn2)cc1` [Example 28], for which, in assay [5], the “HDAC % Inhibition (1 μM)” value is on record as 84% and the “HDAC % Inhibition (10 μM)” value turned out to be 96%.

On to `O=C(NO)c1ccc(CNS(=O)(=O)Cn2cc(-c3ccc(F)cc3)nn2)cc1` [Example 29, 4-{[4-(4-Fluoro-phenyl)-[1,2,3]triazol-1-ylmethanesulfonylamino)-methyl}-N-hydroxy-benzamide], for which, in assay [5], the “HDAC % Inhibition (1 μM)” value was found to be 87% and the “HDAC % Inhibition (10 μM)” value was found to be 98%.

For the molecule `O=C(NO)c1ccc(CNS(=O)(=O)Cn2cc(-c3ccccc3F)nn2)cc1` [Example 30, 4-{[4-(2-Fluoro-phenyl)-[1,2,3]triazol-1-ylmethanesulfonylamino]-methyl}-N-hydroxy-benzamide], in assay [5], the “HDAC % Inhibition (1 μM)” value came to 92% and the “HDAC % Inhibition (10 μM)” value is on record as 99%.

Take `CN(C)c1ccc(-c2cn(CS(=O)(=O)NCc3ccc(C(=O)NO)cc3)nn2)cc1` [Example 31, 4-{[4-(4-Dimethylamino-phenyl)-[1,2,3]triazol-1-ylmethanesulfonylamino]-methyl}-N-hydroxy-benzamide]: in assay [5], the “HDAC % Inhibition (1 μM)” value came to 85% and the “HDAC % Inhibition (10 μM)” value was 97%.

In the case of `COc1ccc(-c2cn(CS(=O)(=O)NCc3ccc(C(=O)NO)cc3)nn2)cc1` [Example 32, N-Hydroxy-4-{[4-(4-methoxy-phenyl)-[1,2,3]triazol-1-ylmethanesulfonylamino]-methyl}-benzamide], in assay [5], the “HDAC % Inhibition (1 μM)” value was found to be 79% and the “HDAC % Inhibition (10 μM)” value is 91%.

In the case of `O=C(NO)c1ccc(CNS(=O)(=O)Cn2cc(-c3cccnc3)nn2)cc1` [Example 33, N-Hydroxy-4-[(4-pyridin-3-yl-[1,2,3]triazol-1-ylmethanesulfonylamino)-methyl]-benzamide], in assay [5], the “HDAC % Inhibition (1 μM)” value is given as 63% and the “HDAC % Inhibition (10 μM)” value was determined as 92%.

Turning to `O=C(NO)c1ccc(CNS(=O)(=O)Cn2cc(-c3ccccc3)nn2)cc1` [Example 34], the 50% growth inhibitory concentration (GI50) in assay [1] was 23.3 µM; in assay [3] it was 19.9 µM; in assay [4] it was 23.8 µM. The “HDAC % Inhibition (1 μM)” value in assay [5] was determined as 91%. In addition, in assay [5], the “HDAC % Inhibition (10 μM)” value was found to be 99%.

As to `O=C(/C=C/c1cccc(CNS(=O)(=O)Cn2cc(-c3ccccc3)nn2)c1)NO` [Example 35, N-Hydroxy-3-{3-[(4-phenyl-[1,2,3]triazol-1-ylmethanesulfonylamino)-methyl]-phenyl}-acrylamide], the GI50 was determined as 47.7 µM in assay [1], 20.4 µM in assay [3] and 19.3 µM in assay [4]. The “HDAC % Inhibition (1 μM)” value in assay [5] is recorded as 67%. For the same molecule, the “HDAC % Inhibition (10 μM)” value in assay [5] is 92%.
